Test results reported in ChEMBL document CHEMBL4354824, “4-Aryl-1-oxa-4,9-diazaspiro[5.5]undecane Derivatives as Dual μ-Opioid Receptor Agonists and σ1 Receptor Antagonists for the Treatment of Pain” (J Med Chem, 2020).
≈ marks a conversion by molar mass, not a printed value.

Tests used:
Cytochrome P450 3A4 = Cytochrome P450 3A4 (Homo sapiens, UniProt P08684); assay: Inhibition of recombinant human CYP3A4 using fluorometric substrate; assay type: ADME; conditions: recombinant enzyme
Mus musculus [1] = assay: Antinociceptive activity in ip dosed mouse assessed as reduction in mechanical nociception measured after 30 mins post dose by paw pressure pain test; assay type: functional; conditions: 0.5 h
[2] = Basicity constant, pKa of the compound; assay type: physicochemical
hERG (KCNH2) = hERG (KCNH2) (Homo sapiens, UniProt Q12809); assay: Inhibition of human ERG expressed in CHOK1 cells assessed as reduction in channel current at 10 uM at -80 mV holding potential by whole cell patch clamp assay relative to control; assay type: cell-based; conditions: CHO-K1 cells expressing human ERG
hERG (KCNH2), sequence (Q12809 whole entry): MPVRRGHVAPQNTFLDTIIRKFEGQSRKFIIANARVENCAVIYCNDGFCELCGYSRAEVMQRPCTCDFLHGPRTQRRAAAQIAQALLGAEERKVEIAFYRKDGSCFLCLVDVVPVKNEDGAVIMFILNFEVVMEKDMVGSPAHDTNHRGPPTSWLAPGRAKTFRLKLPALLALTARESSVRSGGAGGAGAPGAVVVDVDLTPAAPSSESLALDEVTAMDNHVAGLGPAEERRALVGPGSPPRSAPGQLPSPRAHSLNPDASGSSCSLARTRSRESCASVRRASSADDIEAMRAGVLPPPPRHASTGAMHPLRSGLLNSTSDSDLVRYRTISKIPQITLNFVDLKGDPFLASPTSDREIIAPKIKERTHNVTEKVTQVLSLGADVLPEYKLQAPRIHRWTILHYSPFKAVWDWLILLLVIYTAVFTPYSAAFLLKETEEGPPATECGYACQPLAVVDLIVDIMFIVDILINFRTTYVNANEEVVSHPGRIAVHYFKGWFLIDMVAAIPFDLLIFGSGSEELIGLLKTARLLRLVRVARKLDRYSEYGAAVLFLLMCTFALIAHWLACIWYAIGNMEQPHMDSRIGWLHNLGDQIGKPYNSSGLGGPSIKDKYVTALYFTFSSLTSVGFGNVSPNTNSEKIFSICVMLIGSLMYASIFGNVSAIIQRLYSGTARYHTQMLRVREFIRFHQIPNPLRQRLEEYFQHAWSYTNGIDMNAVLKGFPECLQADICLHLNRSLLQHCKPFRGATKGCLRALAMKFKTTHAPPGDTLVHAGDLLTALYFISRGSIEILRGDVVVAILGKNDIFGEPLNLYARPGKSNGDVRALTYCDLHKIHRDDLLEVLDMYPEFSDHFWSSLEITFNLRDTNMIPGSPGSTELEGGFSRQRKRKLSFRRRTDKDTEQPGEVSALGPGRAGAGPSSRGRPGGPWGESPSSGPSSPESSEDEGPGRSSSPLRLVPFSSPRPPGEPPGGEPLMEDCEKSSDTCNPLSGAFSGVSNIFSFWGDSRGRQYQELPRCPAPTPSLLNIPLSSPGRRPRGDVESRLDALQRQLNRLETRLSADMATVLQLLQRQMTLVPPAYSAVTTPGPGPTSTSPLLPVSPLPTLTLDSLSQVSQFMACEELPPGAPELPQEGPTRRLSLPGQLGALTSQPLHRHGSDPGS

[3] = molecular target: 5-hydroxytryptamine receptor 2B (Homo sapiens, UniProt P41595); assay: Inhibition of 5HT2B receptor (unknown origin)
5-hydroxytryptamine receptor 2B, sequence (P41595 whole entry): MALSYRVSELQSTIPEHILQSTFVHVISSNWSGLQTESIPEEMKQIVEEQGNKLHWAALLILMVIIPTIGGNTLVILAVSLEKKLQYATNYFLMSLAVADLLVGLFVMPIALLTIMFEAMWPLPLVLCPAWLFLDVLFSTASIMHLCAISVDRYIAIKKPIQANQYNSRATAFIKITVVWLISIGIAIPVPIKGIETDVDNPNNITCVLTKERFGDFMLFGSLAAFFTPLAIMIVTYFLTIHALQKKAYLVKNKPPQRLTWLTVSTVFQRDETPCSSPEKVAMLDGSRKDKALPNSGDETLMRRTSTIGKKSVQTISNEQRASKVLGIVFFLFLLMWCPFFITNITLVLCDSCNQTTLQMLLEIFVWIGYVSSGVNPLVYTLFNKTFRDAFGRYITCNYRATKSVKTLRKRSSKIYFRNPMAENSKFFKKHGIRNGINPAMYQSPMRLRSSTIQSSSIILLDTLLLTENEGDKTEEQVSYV

[4] = Clearance in human liver microsomes; assay type: ADME, Microsome; conditions: read-out: CLH
[5] = Thermodynamic solubility in pH 7.4 buffer; assay type: physicochemical; conditions: read-out: Therm_solubility
Cytochrome P450 2C19 = Cytochrome P450 2C19 (Homo sapiens, UniProt P33261); assay: Inhibition of recombinant human CYP2C19 using fluorometric substrate; assay type: ADME; conditions: recombinant enzyme
Cytochrome P450 2C19, sequence (P33261 whole entry): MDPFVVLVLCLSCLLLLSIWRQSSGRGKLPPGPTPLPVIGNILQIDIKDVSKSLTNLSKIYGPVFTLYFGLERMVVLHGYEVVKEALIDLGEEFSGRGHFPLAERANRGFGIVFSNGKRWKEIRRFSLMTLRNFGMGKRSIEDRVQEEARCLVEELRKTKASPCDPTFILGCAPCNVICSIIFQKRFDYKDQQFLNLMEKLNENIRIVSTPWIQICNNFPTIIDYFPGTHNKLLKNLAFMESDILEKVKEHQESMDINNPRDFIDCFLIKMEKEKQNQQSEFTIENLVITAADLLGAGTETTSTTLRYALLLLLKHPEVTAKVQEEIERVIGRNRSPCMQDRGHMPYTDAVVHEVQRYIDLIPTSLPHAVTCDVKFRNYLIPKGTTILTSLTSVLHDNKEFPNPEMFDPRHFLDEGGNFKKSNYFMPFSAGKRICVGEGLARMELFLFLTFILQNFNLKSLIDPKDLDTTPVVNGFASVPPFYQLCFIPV

Cytochrome P450 1A2 = molecular target: T1, Cytochrome P450 1A2 (Homo sapiens, UniProt P05177); assay: Inhibition of recombinant human CYP1A2 using fluorometric substrate; assay type: ADME; conditions: recombinant enzyme
T1 sequence (P05177 whole entry): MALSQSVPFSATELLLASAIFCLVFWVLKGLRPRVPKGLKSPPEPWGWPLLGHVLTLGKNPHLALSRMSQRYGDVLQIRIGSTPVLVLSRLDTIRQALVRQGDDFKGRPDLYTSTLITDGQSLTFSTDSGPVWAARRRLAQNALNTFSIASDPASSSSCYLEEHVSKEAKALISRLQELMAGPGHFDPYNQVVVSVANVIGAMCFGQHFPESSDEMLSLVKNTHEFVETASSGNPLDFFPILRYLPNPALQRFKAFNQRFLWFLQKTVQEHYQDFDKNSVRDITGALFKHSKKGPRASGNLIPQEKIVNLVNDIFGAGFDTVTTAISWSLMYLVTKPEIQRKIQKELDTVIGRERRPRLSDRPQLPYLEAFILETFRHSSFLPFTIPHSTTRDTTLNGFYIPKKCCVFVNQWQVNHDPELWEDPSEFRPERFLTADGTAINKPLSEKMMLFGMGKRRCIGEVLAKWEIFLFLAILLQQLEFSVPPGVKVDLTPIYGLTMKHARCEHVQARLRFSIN

Cytochrome P450 2E1 = Cytochrome P450 2E1 (Homo sapiens, UniProt P05181); assay: Inhibition of recombinant human CYP2E1 using fluorometric substrate; assay type: ADME; conditions: recombinant enzyme
[6] = molecular target: Voltage-gated inwardly rectifying potassium channel KCNH2 (Homo sapiens, UniProt Q12809)
Voltage-gated inwardly rectifying potassium channel KCNH2, sequence (Q12809 whole entry): as the sequence (Q12809 whole entry) above
Description: Inhibition of human ERG expressed in CHOK1 cells assessed as reduction in channel current at -80 mV holding potential by whole cell patch clamp assay

Cytochrome P450 2D6 = Cytochrome P450 2D6 (Homo sapiens, UniProt P10635); assay: Inhibition of recombinant human CYP2D6 using fluorometric substrate; assay type: ADME; conditions: recombinant enzyme
Cytochrome P450 2D6, sequence (P10635 whole entry): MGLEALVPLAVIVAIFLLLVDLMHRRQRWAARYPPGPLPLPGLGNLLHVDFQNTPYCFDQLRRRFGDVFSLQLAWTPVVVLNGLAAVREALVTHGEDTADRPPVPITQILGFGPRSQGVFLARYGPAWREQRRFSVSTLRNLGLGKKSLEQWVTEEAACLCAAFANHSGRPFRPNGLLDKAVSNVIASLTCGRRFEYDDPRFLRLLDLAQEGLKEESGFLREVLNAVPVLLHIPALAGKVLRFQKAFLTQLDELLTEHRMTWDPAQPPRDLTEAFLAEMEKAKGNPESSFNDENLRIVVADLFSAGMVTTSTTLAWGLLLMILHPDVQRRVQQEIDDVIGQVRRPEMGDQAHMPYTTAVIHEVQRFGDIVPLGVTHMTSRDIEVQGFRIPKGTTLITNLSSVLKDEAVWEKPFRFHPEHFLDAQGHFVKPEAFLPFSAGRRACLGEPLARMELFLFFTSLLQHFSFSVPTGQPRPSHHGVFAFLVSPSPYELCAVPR

[7] = Lipophilicity, log Pof the compound; assay type: physicochemical; conditions: octanol/water
[8] = Thermodynamic solubility in pH 2 buffer; assay type: physicochemical; conditions: read-out: Therm_solubility
[9] = molecular target: T2, Alpha-1A adrenergic receptor (Homo sapiens, UniProt P35348); assay: Displacement of [3H]-prazosin from human alpha1A adrenoreceptor expressed in enriched membranes incubated for 90 mins by liquid scintillation counting method; assay type: cell membranes
T2 sequence (P35348 whole entry): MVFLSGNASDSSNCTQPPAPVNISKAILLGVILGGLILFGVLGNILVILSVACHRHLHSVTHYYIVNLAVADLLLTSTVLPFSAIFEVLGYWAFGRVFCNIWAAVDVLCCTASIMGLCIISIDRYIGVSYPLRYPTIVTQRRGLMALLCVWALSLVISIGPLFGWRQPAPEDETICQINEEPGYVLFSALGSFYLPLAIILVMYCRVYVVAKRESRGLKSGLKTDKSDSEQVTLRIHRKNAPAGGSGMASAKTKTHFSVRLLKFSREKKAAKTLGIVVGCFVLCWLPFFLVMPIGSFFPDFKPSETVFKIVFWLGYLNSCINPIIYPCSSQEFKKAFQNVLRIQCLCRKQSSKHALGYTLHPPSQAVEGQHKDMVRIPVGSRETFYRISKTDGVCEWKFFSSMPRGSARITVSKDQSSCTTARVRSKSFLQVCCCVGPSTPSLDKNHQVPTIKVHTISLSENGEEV

Cytochrome P450 2C9 = Cytochrome P450 2C9 (Homo sapiens, UniProt P11712); assay: Inhibition of recombinant human CYP2C9 using fluorometric substrate; assay type: ADME; conditions: recombinant enzyme
Mus musculus [10] = assay: Induction of constipation in mouse assessed as effect on intestinal transit at 20 mg/kg, ip dosed 30 mins before charcoal suspension dosing and measured after 30 mins; assay type: organism-based; conditions: in vivo, 0.5 h
[11] = molecular target: T3, Sigma non-opioid intracellular receptor 1 (Homo sapiens, UniProt Q99720); assay: Displacement of [3H]-(+)-pentazocine from human sigma-1 receptor expressed in HEK293 membranes at 1 uM incubated for 120 mins by liquid scintillation counting method relative to control
T3 sequence (Q99720 whole entry): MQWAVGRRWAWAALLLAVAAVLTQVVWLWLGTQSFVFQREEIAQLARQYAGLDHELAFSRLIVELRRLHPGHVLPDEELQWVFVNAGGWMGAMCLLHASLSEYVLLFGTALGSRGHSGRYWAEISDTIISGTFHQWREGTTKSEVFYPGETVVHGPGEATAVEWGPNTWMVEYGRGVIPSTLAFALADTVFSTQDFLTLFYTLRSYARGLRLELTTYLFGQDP

[12] = molecular target: T3, Sigma non-opioid intracellular receptor 1; assay: Displacement of [3H]-(+)-pentazocine from human sigma-1 receptor expressed in HEK293 membranes incubated for 120 mins by liquid scintillation counting method
Mu-type opioid receptor [13] = molecular target: T4, Mu-type opioid receptor (Homo sapiens, UniProt P35372); assay: Displacement of [3H]-DAMGO from human MOR expressed in CHOK1 cell membranes at 1 uM incubated for 60 mins by liquid scintillation counting method
T4 sequence (P35372 whole entry): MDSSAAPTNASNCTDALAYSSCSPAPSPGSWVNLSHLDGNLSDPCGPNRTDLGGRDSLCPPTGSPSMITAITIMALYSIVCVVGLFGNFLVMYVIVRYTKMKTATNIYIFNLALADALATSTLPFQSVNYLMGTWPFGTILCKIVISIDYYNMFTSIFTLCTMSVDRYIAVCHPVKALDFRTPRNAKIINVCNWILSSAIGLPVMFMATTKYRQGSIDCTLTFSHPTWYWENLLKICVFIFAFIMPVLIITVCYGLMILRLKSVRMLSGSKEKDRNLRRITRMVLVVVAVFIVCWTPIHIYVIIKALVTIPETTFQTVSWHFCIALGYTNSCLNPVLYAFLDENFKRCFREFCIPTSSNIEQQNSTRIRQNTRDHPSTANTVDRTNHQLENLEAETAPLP

Mu-type opioid receptor [14] = molecular target: T4, Mu-type opioid receptor; assay: Agonist activity at human MOR expressed in CHOK1 cells assessed as […] of cAMP accumulation incubated for 45 mins by HTRF assay; assay type: functional, cell-based
Mu-type opioid receptor [15] = molecular target: T4, Mu-type opioid receptor; assay: Agonist activity at human MOR expressed in CHOK1 cells assessed as […] of cAMP accumulation at 1 uM incubated for 45 mins by HTRF assay; assay type: functional, cell-based
Mu-type opioid receptor [16] = molecular target: T4, Mu-type opioid receptor; assay: biochemical
Description: Displacement of [3H]-DAMGO from human MOR expressed in CHOK1 cell membranes incubated for 60 mins by liquid scintillation counting method

Mus musculus [17] = assay: Induction of constipation in mouse assessed as effect on intestinal transit at 10 mg/kg, po dosed 30 mins before charcoal suspension dosing and measured after 30 mins; assay type: organism-based; conditions: in vivo, 0.5 h
Mus musculus [18] = assay: Antinociceptive activity in orally dosed mouse assessed as reduction in mechanical nociception measured after 30 mins post dose by paw pressure pain test; assay type: functional; conditions: po, 0.5 h
[19] = molecular target: T5, Alpha-1A adrenergic receptor (Homo sapiens) (UniProt P35348); assay: Displacement of [3H]-prazosin from human alpha1A adrenoreceptor expressed in enriched membranes at 1 uM incubated for 90 mins by liquid scintillation counting method relative to control; assay type: cell membranes
T5 sequence (whole entry): T2 sequence (P35348 whole entry)

Mu-type opioid receptor [20] = molecular target: T4, Mu-type opioid receptor; assay: Agonist activity at human MOR expressed in CHOK1 cells assessed as […] of cAMP accumulation incubated for 45 mins by HTRF assay relative to DAMGO; assay type: functional, cell-based
Mu-type opioid receptor [21] = molecular target: T4, Mu-type opioid receptor; assay: Agonist activity at human MOR expressed in CHOK1 cells assessed as […] of cAMP accumulation at 10 uM incubated for 45 mins by HTRF assay; assay type: functional, cell-based
Mu-type opioid receptor [22] = molecular target: T4, Mu-type opioid receptor; assay: Displacement of [3H]-DAMGO from human MOR expressed in CHOK1 cell membranes at 10 uM incubated for 60 mins by liquid scintillation counting method

Cytochrome P450 3A4, sequence (P08684 whole entry): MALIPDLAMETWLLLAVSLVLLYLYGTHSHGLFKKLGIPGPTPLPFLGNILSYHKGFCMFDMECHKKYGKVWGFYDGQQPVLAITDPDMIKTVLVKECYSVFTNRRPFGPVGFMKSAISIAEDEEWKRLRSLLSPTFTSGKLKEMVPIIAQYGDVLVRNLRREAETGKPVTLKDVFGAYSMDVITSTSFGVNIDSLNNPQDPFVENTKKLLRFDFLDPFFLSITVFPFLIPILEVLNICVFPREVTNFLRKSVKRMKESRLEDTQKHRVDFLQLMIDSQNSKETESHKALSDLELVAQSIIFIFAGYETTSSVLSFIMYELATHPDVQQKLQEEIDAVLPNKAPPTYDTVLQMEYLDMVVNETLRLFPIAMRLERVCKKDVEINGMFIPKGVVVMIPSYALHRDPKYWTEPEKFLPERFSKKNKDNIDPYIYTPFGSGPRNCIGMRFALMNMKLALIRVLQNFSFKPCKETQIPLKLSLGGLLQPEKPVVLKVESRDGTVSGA

Structure (SMILES): O=C1N(c2cccnc2C(F)(F)F)CC2(CCN(CCc3ccccc3F)CC2)OC12CC2
- inhibition (INH) (Cytochrome P450 3A4): < 50%
- ED50 (Mus musculus [1]): 15 mg/kg
- pKa [2]: 7.82
- inhibition at 10 µM (hERG (KCNH2)): < 50%
- Ki [3]: 754 nM
- microsomal CLint [4]: 20 µL/min/mg
- solubility thermodynamic [5]: 160 µg/mL (≈ 0.345 mM)
- inhibition (INH) (Cytochrome P450 2C19): < 50%
- inhibition (INH) (Cytochrome P450 1A2): < 50%
- inhibition (INH) (Cytochrome P450 2E1): < 50%
- IC50 [6]: > 10000 nM
- inhibition (INH) (Cytochrome P450 2D6): < 50%
- logP [7]: 3.41
- solubility thermodynamic [8]: 2630 µg/mL (≈ 5.67 mM)
- Ki [9]: 470 nM
- inhibition (INH) (Cytochrome P450 2C9): < 50%
- Activity (Mus musculus [10]): Non-Toxic

Structure (SMILES): O=C(O)CC1OC2(CCN(CCc3ccccc3)CC2)CN(c2ccccc2)C1=O (stereo not given)
- inhibition [11]: < 50%
- Ki [12]: > 1000 nM
- inhibition (Mu-type opioid receptor [13]): < 50%
- EC50 (Mu-type opioid receptor [14]): > 1000 nM
- Activity (Mu-type opioid receptor [15]): < 50%
- Ki (Mu-type opioid receptor [16]): > 1000 nM

Structure (SMILES): COc1ccc2c3c1O[C@H]1C(=O)CC[C@@]4(O)[C@@H](C2)N(C)CC[C@]314 [OXYCODONE]
- Activity (Mus musculus [17]): Toxic
- ED50 (Mus musculus [18]): 4.3 mg/kg

Structure (SMILES): COc1ccc(N2CC3(CCN(CCc4ccccc4)CC3)OC(C)C2=O)cc1 (stereo not given)
- inhibition [19]: 69%
- Ki [12]: 14 nM
- inhibition (Mu-type opioid receptor [13]): < 50%
- EC50 (Mu-type opioid receptor [14]): > 1000 nM
- Activity (Mu-type opioid receptor [15]): < 50%
- Ki (Mu-type opioid receptor [16]): > 1000 nM

Structure (SMILES): CC(=O)Nc1cccc(CCN2CCC3(CC2)CN(c2ccccc2)C(=O)[C@@H](C)O3)c1
- inhibition at 10 µM (hERG (KCNH2)): < 50%
- Emax (Mu-type opioid receptor [20]): 95%
- inhibition [19]: 90%
- IC50 [6]: > 10000 nM
- Ki [12]: 205 nM
- EC50 (Mu-type opioid receptor [14]): 69 nM
- Ki (Mu-type opioid receptor [16]): 46 nM

Structure (SMILES): Cc1cc(OCCN2CCOCC2)nn1-c1ccc2ccccc2c1
- Activity (Mu-type opioid receptor [21]): < 50%

Structure (SMILES): CC1OC2(CCN(CCc3ccccc3)CC2)CN(c2ccc(C(F)(F)F)nc2)C1=O (stereo not given)
- inhibition [19]: 66%
- Ki [12]: 9 nM
- inhibition (Mu-type opioid receptor [13]): < 50%
- EC50 (Mu-type opioid receptor [14]): > 1000 nM
- Activity (Mu-type opioid receptor [15]): < 50%
- Ki (Mu-type opioid receptor [16]): > 1000 nM

Structure (SMILES): O=C(CCCN1CCC(O)(c2ccc(Cl)cc2)CC1)c1ccc(F)cc1
- inhibition (Mu-type opioid receptor [22]): < 50%
- Activity (Mu-type opioid receptor [21]): < 50%

Structure (SMILES): CC(=O)Nc1ccc(CCN2CCC3(CC2)CN(c2ccccc2)C(=O)C(C)O3)cc1 (stereo not given)
- inhibition [19]: 60%
- Ki [12]: 237 nM
- inhibition (Mu-type opioid receptor [13]): < 50%
- EC50 (Mu-type opioid receptor [14]): > 1000 nM
- Activity (Mu-type opioid receptor [15]): < 50%
- Ki (Mu-type opioid receptor [16]): > 1000 nM

Structure (SMILES): CC(=O)Nc1cccc(CCN2CCC3(CC2)CN(c2ccccc2)C(=O)C(C)O3)c1 (racemic)
- inhibition at 10 µM (hERG (KCNH2)): < 50%
- Emax (Mu-type opioid receptor [20]): 96%
- inhibition [19]: 88%
- IC50 [6]: > 10000 nM
- Ki [12]: 147 nM
- EC50 (Mu-type opioid receptor [14]): 343 nM
- Ki (Mu-type opioid receptor [16]): 144 nM
